Among the data in US20260028365A1 (BIOGEN MA INC., priority 2022, published 2026) are IC50 values, retold here.

One test deals with JAK1 (Homo sapiens (Human), UniProt P23458). The test is described as follows: pSTAT3 Cell Assay (MSD, TF1 cells). The format is cell-based. On the procedure:
The inhibitory potency of compounds of the disclosure against the JAK1 kinase activity on STAT3 was evaluated using an MSD-platform plate-based assay format. TF1 cells natively expressing STAT3 and JAK1 were serum-starved to reduce background phosphorylation levels, then cells were treated with compounds of the disclosure for 1 hour with a 10-point four-fold dilution series starting at 10 μM. Cells were then stimulated with 30 ng/mL interleukin 6 (IL-6) for 15 minutes. Cells were lysed and pSTAT3 levels were quantitated using an MSD plate-based assay with anti-STAT3 antibodies. The data were normalized and the percent activity versus log concentration of compound was fitted with a 4-parameter logistic model to generate IC50 curves.

Another test concerns the target Tyk2 (Homo sapiens (Human), UniProt P29597). In words: pSTAT4 Cell Assay (MSD, NK92 cells). The format is cell-based.
Another test concerns the target JH2 domain of human Tyk2 (Homo sapiens (Human), UniProt P29597). The test is described as follows: JH2 Biochemical Assay (TR-FRET probe displacement). The format is binding. A general note: TR-FRET usually uses a lanthanide donor and a delayed reading to cut background.
The target of a further test is JAK2 (Homo sapiens (Human), UniProt O60674). In words: pSTAT5 Cell Assay (MSD, TF1 cells). Type of test: cell-based. The method, then:
Compounds of the disclosure were assessed for their ability to inhibit the JAK2 kinase activity on STAT5 utilizing an MSD-platform plate-based assay format. TF1 cells natively expressing STAT5 and JAK2 were serum-starved to reduce background phosphorylation levels, then cells were treated with compounds of disclosure for 1 hour with a 10-point four-fold dilution series starting at 10 μM. Cells were then stimulated with 30 ng/mL IL-3 for 15 minutes. Cells were then lysed and pSTAT5 levels were quantitated using an MSD plate-based assay with anti-STAT5 antibodies. The data were normalized and the percent activity versus log concentration of compound was fitted with a 4-parameter logistic model to generate a curve and an IC50 value.

The mark [1] stands for this setting: JH2 domain of human Tyk2, TR-FRET probe displacement.
The mark [2] stands for this setting: TR-FRET probe displacement, JH2 domain of human Tyk2.

Read-outs that look alike come from different tables or passages of the source.

Chain of JAK1 (P23458 whole entry): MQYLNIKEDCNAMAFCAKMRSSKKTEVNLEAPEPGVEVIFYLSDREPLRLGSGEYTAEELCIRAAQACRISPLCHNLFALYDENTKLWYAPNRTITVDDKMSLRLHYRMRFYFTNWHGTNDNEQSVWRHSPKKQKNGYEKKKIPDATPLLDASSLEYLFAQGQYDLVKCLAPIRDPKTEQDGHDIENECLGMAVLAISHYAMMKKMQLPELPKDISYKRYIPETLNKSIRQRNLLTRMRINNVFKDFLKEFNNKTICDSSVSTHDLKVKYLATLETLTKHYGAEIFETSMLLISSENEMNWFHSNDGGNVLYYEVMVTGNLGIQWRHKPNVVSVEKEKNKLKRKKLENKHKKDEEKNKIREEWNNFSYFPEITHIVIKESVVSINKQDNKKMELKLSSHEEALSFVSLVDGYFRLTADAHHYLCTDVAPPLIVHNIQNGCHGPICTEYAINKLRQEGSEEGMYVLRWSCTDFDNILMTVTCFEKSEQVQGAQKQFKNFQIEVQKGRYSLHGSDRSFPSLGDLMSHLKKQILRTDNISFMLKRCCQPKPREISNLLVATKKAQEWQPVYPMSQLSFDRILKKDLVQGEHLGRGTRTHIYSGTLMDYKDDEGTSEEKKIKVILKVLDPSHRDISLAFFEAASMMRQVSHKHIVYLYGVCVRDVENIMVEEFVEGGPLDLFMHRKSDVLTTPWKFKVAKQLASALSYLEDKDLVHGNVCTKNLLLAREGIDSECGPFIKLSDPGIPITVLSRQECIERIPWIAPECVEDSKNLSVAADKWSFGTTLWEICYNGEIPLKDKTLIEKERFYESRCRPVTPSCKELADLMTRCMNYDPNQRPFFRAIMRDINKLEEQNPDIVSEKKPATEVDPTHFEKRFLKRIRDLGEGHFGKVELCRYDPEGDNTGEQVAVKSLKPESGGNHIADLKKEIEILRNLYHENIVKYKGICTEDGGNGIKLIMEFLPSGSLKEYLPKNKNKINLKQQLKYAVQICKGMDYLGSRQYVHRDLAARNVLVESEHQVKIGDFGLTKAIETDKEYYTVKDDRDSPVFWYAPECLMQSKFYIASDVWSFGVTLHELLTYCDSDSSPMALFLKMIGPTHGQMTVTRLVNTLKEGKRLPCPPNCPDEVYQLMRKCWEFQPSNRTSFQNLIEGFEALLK
Chain of Tyk2 (P29597 whole entry, the tested form may be a part): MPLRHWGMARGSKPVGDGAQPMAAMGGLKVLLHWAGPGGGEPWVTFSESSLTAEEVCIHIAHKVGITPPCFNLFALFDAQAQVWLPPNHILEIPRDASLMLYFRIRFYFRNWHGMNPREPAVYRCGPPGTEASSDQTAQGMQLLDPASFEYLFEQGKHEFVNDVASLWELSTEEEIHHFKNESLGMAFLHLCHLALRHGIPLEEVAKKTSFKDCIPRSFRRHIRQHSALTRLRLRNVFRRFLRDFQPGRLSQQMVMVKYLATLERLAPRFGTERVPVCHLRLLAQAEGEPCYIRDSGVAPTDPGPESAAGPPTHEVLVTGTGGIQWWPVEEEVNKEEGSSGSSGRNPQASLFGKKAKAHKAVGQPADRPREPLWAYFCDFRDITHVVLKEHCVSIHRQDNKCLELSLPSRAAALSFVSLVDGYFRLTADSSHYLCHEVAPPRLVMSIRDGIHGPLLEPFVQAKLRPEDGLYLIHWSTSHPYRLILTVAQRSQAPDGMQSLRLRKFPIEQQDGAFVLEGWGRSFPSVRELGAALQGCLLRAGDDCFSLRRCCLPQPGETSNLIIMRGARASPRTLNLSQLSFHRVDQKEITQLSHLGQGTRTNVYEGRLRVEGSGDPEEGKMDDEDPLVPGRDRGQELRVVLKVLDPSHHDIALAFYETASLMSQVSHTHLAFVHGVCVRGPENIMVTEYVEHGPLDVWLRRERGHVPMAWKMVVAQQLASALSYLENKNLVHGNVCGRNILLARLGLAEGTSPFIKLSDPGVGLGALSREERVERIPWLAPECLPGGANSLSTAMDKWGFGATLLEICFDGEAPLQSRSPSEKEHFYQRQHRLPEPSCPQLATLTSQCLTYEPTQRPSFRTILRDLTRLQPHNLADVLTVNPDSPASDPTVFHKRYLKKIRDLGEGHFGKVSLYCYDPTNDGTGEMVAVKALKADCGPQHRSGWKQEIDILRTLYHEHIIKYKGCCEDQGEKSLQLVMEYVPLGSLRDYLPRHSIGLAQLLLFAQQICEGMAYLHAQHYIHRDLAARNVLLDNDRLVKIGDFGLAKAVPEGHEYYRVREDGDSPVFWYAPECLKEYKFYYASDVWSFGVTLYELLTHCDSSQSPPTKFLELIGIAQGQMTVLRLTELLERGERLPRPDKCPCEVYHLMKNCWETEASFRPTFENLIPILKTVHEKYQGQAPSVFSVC
Chain of JH2 domain of human Tyk2 (P29597 575-876): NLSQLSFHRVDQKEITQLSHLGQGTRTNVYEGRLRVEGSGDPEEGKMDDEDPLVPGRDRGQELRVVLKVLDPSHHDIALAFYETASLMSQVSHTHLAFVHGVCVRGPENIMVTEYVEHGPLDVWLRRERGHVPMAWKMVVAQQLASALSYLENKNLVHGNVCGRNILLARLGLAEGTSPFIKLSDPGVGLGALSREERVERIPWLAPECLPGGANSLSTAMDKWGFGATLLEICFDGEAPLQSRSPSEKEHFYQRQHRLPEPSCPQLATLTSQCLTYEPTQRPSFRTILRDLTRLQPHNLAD
Chain of JAK2 (O60674 whole entry): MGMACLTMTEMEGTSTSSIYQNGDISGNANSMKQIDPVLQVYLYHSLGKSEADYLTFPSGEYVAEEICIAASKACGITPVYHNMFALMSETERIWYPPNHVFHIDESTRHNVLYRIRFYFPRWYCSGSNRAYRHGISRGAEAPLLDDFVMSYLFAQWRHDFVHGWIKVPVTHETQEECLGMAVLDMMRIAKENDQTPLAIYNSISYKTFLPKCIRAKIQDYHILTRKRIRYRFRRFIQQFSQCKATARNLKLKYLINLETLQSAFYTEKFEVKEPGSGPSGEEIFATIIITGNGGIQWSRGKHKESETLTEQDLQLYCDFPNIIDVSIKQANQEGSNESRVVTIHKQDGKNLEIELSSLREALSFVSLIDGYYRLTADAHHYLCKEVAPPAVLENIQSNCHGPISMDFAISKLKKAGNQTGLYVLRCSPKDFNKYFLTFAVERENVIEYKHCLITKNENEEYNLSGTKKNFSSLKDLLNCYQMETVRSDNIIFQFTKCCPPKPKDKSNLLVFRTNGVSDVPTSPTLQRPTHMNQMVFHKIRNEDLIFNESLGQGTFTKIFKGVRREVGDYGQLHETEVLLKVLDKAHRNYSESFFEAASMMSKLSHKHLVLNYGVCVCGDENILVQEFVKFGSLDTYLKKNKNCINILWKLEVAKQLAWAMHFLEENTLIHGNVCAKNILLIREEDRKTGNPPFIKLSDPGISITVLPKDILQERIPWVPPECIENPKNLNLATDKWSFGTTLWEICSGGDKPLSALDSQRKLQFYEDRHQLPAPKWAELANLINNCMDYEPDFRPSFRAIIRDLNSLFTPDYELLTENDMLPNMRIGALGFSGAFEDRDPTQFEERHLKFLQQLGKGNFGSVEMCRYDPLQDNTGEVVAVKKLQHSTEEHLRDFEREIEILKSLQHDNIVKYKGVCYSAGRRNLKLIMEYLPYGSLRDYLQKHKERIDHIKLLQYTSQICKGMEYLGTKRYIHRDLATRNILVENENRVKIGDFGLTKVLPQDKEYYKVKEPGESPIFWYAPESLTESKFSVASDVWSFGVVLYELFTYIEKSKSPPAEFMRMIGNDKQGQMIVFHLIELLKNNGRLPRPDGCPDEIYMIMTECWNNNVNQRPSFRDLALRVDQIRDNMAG

On to `CC(=O)Nc1cc(Nc2cc(C)nc(C(C)(F)F)n2)c(-c2ncccn2)cn1` [Example 668, N-(4-((2-(1,1-difluoroethyl)-6-methylpyrimidin-4-yl)amino)-5-(pyrimidin-2-yl)pyridin-2-yl)acetamide], for which the IC50 (in general, the midpoint of a concentration-inhibition curve) against JAK1 (IL-6 stimulated, MSD) was at least 1000 nM; against Tyk2 (MSD) it was at most 10 nM; on JH2 domain of human Tyk2 (setting [1]), at most 10 nM; against JAK2 (IL-3 stimulated, MSD), at least 1000 nM.
As for `COCc1ccc(-c2cnc(NC(C)=O)cc2Nc2ccnc(C(C)(F)F)n2)nc1` [Example 851, N-(4′-((2-(1,1-difluoroethyl)pyrimidin-4-yl)amino)-5-(methoxymethyl)-[2,3′-bipyridin]-6′-yl)acetamide], the IC50 is at least 1000 nM against JAK1 (IL-6 stimulated); at most 10 nM against Tyk2; at most 10 nM at JH2 domain of human Tyk2 (TR-FRET probe displacement, JH2 domain); at least 1000 nM against JAK2 (IL-3 stimulated).
For `CC(=O)Nc1cc(Nc2cc(C)nc(C(C)(F)F)n2)c(-c2ccc(N(C)C)cn2)cn1` [Example 652, N-(4′-((2-(1,1-difluoroethyl)-6-methylpyrimidin-4-yl)amino)-5-(dimethylamino)-[2,3′-bipyridin]-6′-yl)acetamide], the IC50 against JAK1 (IL-6 stimulated, MSD) is at least 1000 nM; against Tyk2 (MSD) it was at most 10 nM; at JH2 domain of human Tyk2 (setting [1]) it was at most 10 nM; on JAK2 (IL-3 stimulated, MSD) it was at least 1000 nM.
On to `CC(=O)Nc1cc(Nc2ccnc(C(C)(F)F)n2)c(-c2ncc(F)cn2)cn1` [Example 185, N-(4-((2-(1,1-difluoroethyl)pyrimidin-4-yl)amino)-5-(5-fluoropyrimidin-2-yl)pyridin-2-yl)acetamide], for which the IC50 on JAK1 (IL-6 stimulation, MSD) was at least 1000 nM; against Tyk2 (MSD), 10 to 100 nM; at JH2 domain of human Tyk2 (setting [2]), at most 10 nM; at JAK2 (IL-3 stimulation, MSD) it was at least 1000 nM.
In the case of `CC(=O)Nc1cc(Nc2ccnc(C(C)(F)F)n2)c(-c2nnc(C(C)(C)C)s2)cn1` [Example 715, N-(5-(5-(tert-butyl)-1,3,4-thiadiazol-2-yl)-4-((2-(1,1-difluoroethyl)pyrimidin-4-yl)amino)pyridin-2-yl)acetamide], the IC50 on JAK1 (IL-6 stimulated, MSD) was at least 1000 nM; against Tyk2 (MSD), at most 10 nM; on JH2 domain of human Tyk2 (setting [1]), at most 10 nM; on JAK2 (IL-3 stimulated, MSD), at least 1000 nM.
For `CC(=O)Nc1cc(Nc2cc(C)nc(C(C)(F)F)n2)c(OC[C@H]2CCCO2)cn1` (single isomer, unassigned) [Example 294, (R)-N-(4-((2-(1,1-difluoroethyl)-6-methylpyrimidin-4-yl)amino)-5-((tetrahydrofuran-2-yl)methoxy)pyridin-2-yl)acetamide or (S)-N-(4-((2-(1,1-difluoroethyl)-6-methylpyrimidin-4-yl)amino)-5-((tetrahydrofuran-2-yl)methoxy)pyridin-2-yl)acetamide], the IC50 at JAK1 (IL-6 stimulation, MSD) was at least 1000 nM; against Tyk2 (MSD), at most 10 nM; at JH2 domain of human Tyk2 (setting [2]), at most 10 nM; against JAK2 (IL-3 stimulation, MSD), at least 1000 nM.
In the case of `[2H]C([2H])([2H])C([2H])([2H])Oc1cnc(NC(C)=O)cc1Nc1cc(CC)nc(C(C)(F)F)n1` [Example 515, N-(4-((2-(1,1-difluoroethyl)-6-ethylpyrimidin-4-yl)amino)-5-(ethoxy-d5)pyridin-2-yl)acetamide], the IC50 against JAK1 (IL-6 stimulated, MSD) was at least 1000 nM; at Tyk2 (MSD), 10 to 100 nM; at JH2 domain of human Tyk2 (setting [1]), at most 10 nM; against JAK2 (IL-3 stimulated, MSD), at least 1000 nM.
As to `COCCOc1cnc(NC(C)=O)cc1Nc1cncc(C(C)(F)F)n1` [Example 67, N-(4-((6-(1,1-difluoroethyl)pyrazin-2-yl)amino)-5-(2-methoxyethoxy)pyridin-2-yl)acetamide], the IC50 is at least 1000 nM against JAK1 (IL-6 stimulation, MSD); 10 to 100 nM on Tyk2 (MSD); at most 10 nM on JH2 domain of human Tyk2 (setting [2]); at least 1000 nM against JAK2 (IL-3 stimulation, MSD).
Consider `COCc1nccc(-c2cnc(NC(C)=O)cc2Nc2cc(C)nc(C(C)(F)F)n2)n1` [Example 661, N-(4-((2-(1,1-difluoroethyl)-6-methylpyrimidin-4-yl)amino)-5-(2-(methoxymethyl)pyrimidin-4-yl)pyridin-2-yl)acetamide], for which the IC50 against JAK1 (IL-6 stimulated, MSD) is at least 1000 nM; at Tyk2 (MSD) it was at most 10 nM; at JH2 domain of human Tyk2 (setting [1]) it was at most 10 nM; on JAK2 (IL-3 stimulated, MSD), at least 1000 nM.
